Source: US10359436B2, “Nuclear stress response in motor neuron disease and other neurological diseases” (DIGNITY HEALTH, priority 2013, dated 2019)

Tested on: HEK293 cells
Assay: Quantitative immunocolocalization of RBM45 with the nuclear stress body marker HSF1 in stressed HEK293 cells
Assay type: cell-based
Conditions: mitoxantrone treatment as cellular stress, quantitative immunocolocalization analysis
Procedure: An imaging-based approach combining immunofluorescence microscopy (IF), digital deconvolution (DD), and automated image analysis (IA) is used to examine RBM45 redistribution and colocalization with markers of subnuclear structures in response to heat shock and mitoxantrone (topoisomerase II inhibitor, genotoxic stress).
For immunocytochemistry experiments, HEK293 cells were grown and stained with antibodies, as above. Corresponding images were subjected to digital deconvolution, counting as above, and quantitative immunocolocalization with markers of subnuclear structures.
Digital deconvolution is a mathematical post-processing method that removes out of focus light from wide field fluorescent microscopic images, based on the mathematical modeling of the behavior of light in a given imaging system, called the point spread function (PSF). The effect of deconvolution is similar, in practice, to using a confocal microscope. […] Several deconvolution procedures exist, which vary in complexity/algorithm. […]
During image analysis, counts are based on thresholding of image pixel intensity values and counts are made using particle detection algorithms (vary size/circularity). On example of colocalization analysis is quantitative immunocolocalization analysis as described in Li et al., 2004. […]

SMILES: O=C1c2c(O)ccc(O)c2C(=O)c2c(NCCNCCO)ccc(NCCNCCO)c21 [mitoxantrone]
- colocalization of RBM45 with the nuclear stress body marker HSF1: significant colocalization
